These results are taken from US4410541A, “Composite for improving lipid metabolism” (Nihon Nosan Kogyo K.K., priority 1981, dated 1983).

The assay is described as follows: Animal Experiment 2: whole cholesterol in hypercholesterolemia rats (Zurkowski's method). The settings on record: male Wistar rats on cholesterol feed, five days; composite oral 75 μg monoiodohistidine/day/rat, contrast groups equal iodine amount; control group 335. The class given is in vivo, rats of Wistar descent.

Description: A test groups consisted of ten heads of male rats of Wistar descent, which weighed about 120 g. The test group was fed in a cage at 24±1° C. of temperature and at 50 to 60% of humidity. […] The composite to be tested was made from the yolk of egg of the egg-laying hens to which calcium iodate was fed. The composite was dissolved in distilled water, and then orally dosed to the rats by means of a stomach probe at the rate of 75 μg of monoiodohistidine per day per rat for five days in parallel with feeding of the cholesterol containing feed. The rats were caused to fast for a night after composite dosing was finished, and next morning blood was taken from fundus of the rat's eyes in order to measure the amount of whole cholesterol by Zurkowski's method.
A control group, a contrast group (1) and a contrast group (2) equally consisted of rats which got hypercholesterolemia by the same process as mentioned in the test group. While potassium iodide was dosed to the contrast group (1) so that the iodine amount would be equal to that of the test group, iodo-lecithin was dosed to the contrast group (2) so that the iodine amount would be equal to that of the test group. On the other hand, no iodine agent or compound was dosed to the control group. And, as to the rats of these groups, the amount of whole cholesterol was measured by the same method as mentioned in the test group.

With `[I-].[K+]` [potassium iodide], the “Amount of whole Cholesterol” value worked out at 323 mg/dL.

Take iodo-lecithin: the “Amount of whole Cholesterol” value came out at 325 mg/dL.
